What was measured:
Type in all cases: cell-based
Conditions in all cases: 24 hours of compound treatment
[1] = target: T1, GSPT1 (Homo sapiens, UniProt P15170+Q96SW2); experiment: Western-blot assay of substrate protein degradation in hPBMCs, GSPT1
T1 construct: endogenous in cells; host or cells: hPBMCs (Milecell Biotechnologies)
Method: (§1) After 24 hours of compounds treatment, cells were harvested and lysed in RIPA protein lysate containing protease inhibitors on ice for 30 min, followed by centrifugation. The supernatant was aspirated as the extracted total cell protein. The protein concentration of the supernatant was determined using the conventional BCA (Bicinchoninic Acid) assay. • (2) To the collected supernatant, 5X SDS sample loading buffer was added, followed by denaturation at 95°C for 5 minutes. The denatured samples were then separated by SDS-PAGE electrophoresis on a polyacrylamide gel, transferred onto a nitrocellulose membrane (0.45 µm NC membrane), blocked with blocking buffer at room temperature for 1 hour, and subjected to antibody incubation and development procedures according to the antibody manufacturer's instructions (Cell Signaling Technology Company). […]
(§2) Target protein remaining (%) refers to the percentage of target protein remaining in cells after treatment with protein degrader compounds.
(§3) Calculation method for target protein remaining (%): Use ImageJ software to measure grayscale values of Western blot bands from drug (protein degrader)-treated samples. The grayscale value of drug-treated bands is divided by that of internal control protein bands, and the resulting quotient is normalized to obtain the relative percentage of remaining target protein after protein degrader treatment. Target protein degradation rate(%) = 1−target protein remaining(%). [formula]

[2] = target: T2, WEE1 (Homo sapiens, UniProt P30291+Q96SW2); experiment: Western-blot assay of substrate protein degradation in hPBMCs, WEE1
T2 construct: endogenous in cells; host or cells: hPBMCs (Milecell Biotechnologies)
Method: as §1, §2, §3

[3] = target: T3, IKZF2 (Homo sapiens, UniProt Q96SW2+Q9UKS7); experiment: Western-blot assay of substrate protein degradation in hPBMCs, IKZF2
T3 construct: endogenous in cells; host or cells: hPBMCs (Milecell Biotechnologies)
Method: as §1, §2, §3

[4] = target: T4, IKZF3 (Homo sapiens, UniProt Q96SW2+Q9UKT9); experiment: Western-blot assay of substrate protein degradation in hPBMCs, IKZF3
T4 construct: endogenous in cells; host or cells: hPBMCs (Milecell Biotechnologies)
Method: as §1, §2, §3

[5] = target: T5, CK1α (Homo sapiens, UniProt P48729+Q96SW2); experiment: Western-blot assay of substrate protein degradation in hPBMCs, CK1α
T5 construct: endogenous in cells; host or cells: hPBMCs (Milecell Biotechnologies)
Method: as §1, §2, §3

[6] = target: T6, IKZF1 (Homo sapiens, UniProt Q13422+Q96SW2); experiment: Western-blot assay of substrate protein degradation in hPBMCs, IKZF1
T6 construct: endogenous in cells; host or cells: hPBMCs (Milecell Biotechnologies)
Method: as §1, §2, §3

[7] = compounds tested at 50 nM and 500 nM (concentration of the table not stated)
[8] = 50 nM and 500 nM tested (concentration behind the class not stated)

T1 sequence (P15170 whole entry): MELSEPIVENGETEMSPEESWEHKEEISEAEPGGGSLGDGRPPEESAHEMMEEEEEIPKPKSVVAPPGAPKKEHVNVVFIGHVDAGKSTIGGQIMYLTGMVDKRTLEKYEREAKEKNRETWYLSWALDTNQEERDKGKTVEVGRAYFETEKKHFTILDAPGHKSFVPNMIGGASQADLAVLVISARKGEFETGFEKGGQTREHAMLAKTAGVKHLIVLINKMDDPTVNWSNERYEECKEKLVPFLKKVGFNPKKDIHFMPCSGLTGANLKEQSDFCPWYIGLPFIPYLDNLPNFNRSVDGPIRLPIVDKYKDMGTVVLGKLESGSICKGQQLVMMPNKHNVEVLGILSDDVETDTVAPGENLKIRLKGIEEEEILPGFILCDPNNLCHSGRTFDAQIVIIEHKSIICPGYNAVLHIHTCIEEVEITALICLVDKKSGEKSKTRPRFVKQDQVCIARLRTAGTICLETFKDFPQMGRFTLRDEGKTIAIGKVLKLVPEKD
T1 sequence (Q96SW2 whole entry): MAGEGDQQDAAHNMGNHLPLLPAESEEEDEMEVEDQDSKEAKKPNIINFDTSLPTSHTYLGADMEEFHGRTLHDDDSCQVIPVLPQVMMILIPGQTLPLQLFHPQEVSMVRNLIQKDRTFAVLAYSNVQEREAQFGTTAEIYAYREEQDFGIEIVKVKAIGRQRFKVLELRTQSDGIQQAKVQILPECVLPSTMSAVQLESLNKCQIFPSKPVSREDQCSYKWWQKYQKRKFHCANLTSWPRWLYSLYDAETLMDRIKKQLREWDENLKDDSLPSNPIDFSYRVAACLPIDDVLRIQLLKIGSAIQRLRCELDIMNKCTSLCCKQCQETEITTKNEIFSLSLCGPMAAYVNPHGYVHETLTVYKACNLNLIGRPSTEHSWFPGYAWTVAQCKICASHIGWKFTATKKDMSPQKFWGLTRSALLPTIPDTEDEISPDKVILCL
T1 sequence (Q16531 whole entry partner): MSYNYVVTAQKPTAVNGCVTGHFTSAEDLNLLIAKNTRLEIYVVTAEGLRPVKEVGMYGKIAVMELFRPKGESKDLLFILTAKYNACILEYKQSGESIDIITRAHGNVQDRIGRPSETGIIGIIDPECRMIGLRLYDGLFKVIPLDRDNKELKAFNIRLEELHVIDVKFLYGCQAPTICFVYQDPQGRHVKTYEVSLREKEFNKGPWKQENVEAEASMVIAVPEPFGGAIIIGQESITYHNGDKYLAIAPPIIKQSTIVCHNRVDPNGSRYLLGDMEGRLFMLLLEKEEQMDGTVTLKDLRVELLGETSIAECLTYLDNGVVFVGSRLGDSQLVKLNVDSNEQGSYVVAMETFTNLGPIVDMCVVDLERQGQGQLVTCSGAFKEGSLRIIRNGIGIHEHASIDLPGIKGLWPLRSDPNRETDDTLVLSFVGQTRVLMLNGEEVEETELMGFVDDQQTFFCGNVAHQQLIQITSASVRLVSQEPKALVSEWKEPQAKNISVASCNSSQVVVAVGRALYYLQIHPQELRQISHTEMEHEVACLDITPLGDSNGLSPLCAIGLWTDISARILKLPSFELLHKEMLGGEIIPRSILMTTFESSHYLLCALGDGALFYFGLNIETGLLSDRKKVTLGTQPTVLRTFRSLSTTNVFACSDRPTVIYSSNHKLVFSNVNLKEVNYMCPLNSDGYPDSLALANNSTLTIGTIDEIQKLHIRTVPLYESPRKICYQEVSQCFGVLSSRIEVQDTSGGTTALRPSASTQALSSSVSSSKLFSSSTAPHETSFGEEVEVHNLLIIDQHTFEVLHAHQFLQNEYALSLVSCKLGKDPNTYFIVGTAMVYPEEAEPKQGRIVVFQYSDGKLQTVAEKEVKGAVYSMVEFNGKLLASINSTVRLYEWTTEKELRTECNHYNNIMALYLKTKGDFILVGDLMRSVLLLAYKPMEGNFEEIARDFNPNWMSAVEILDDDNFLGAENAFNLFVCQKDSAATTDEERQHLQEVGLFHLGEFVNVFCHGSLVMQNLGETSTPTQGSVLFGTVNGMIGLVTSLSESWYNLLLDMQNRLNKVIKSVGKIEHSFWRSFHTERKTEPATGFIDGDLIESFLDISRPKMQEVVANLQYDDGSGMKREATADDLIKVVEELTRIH
T2 sequence (P30291 whole entry): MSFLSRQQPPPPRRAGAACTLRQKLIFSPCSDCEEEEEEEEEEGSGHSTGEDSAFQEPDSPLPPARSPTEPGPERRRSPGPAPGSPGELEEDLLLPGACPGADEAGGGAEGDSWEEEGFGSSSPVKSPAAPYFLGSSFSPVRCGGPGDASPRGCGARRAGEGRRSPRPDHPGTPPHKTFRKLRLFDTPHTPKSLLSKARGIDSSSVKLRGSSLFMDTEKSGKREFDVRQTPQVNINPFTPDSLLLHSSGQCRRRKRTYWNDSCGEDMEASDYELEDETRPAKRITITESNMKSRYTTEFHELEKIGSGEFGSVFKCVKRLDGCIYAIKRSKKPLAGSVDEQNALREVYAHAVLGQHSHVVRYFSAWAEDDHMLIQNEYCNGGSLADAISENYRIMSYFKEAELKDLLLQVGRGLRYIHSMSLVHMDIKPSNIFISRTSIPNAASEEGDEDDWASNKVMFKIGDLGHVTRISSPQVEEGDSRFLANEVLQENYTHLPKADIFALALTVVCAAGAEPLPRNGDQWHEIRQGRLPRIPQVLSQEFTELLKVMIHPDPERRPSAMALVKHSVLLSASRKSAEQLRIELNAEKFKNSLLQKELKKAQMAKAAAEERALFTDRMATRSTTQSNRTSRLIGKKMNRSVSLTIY
T2 sequence (Q96SW2 whole entry): as the sequence (Q96SW2 whole entry) above
T2 sequence (Q16531 whole entry partner): as the sequence (Q16531 whole entry partner) above
T5 sequence (P48729 whole entry): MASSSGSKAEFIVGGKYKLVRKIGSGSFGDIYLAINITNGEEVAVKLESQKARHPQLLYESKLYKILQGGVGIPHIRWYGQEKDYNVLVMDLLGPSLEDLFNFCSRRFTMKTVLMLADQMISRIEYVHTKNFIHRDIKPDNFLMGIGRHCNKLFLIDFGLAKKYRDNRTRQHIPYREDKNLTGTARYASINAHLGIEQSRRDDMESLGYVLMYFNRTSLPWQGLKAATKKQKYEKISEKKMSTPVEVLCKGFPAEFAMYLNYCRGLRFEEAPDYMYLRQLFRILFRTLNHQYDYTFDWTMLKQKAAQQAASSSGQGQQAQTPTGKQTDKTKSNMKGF
T5 sequence (Q96SW2 whole entry): as the sequence (Q96SW2 whole entry) above
T5 sequence (Q16531 whole entry partner): as the sequence (Q16531 whole entry partner) above
T6 sequence (Q13422 whole entry): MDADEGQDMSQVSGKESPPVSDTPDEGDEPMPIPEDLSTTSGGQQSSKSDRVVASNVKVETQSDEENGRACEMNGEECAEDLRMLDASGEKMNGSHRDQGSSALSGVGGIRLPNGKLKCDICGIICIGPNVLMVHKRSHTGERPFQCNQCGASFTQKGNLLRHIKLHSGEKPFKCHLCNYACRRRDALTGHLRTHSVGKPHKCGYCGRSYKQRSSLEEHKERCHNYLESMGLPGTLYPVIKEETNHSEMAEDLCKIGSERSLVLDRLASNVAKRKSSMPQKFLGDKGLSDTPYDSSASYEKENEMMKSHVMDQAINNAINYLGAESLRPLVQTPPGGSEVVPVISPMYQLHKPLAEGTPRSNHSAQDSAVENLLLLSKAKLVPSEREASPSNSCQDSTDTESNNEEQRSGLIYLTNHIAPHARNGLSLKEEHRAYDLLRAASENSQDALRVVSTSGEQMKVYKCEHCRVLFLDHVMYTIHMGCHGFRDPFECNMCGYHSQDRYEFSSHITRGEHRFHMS
T6 sequence (Q96SW2 whole entry): as the sequence (Q96SW2 whole entry) above
T6 sequence (Q16531 whole entry partner): as the sequence (Q16531 whole entry partner) above
T4 sequence (Q9UKT9 whole entry): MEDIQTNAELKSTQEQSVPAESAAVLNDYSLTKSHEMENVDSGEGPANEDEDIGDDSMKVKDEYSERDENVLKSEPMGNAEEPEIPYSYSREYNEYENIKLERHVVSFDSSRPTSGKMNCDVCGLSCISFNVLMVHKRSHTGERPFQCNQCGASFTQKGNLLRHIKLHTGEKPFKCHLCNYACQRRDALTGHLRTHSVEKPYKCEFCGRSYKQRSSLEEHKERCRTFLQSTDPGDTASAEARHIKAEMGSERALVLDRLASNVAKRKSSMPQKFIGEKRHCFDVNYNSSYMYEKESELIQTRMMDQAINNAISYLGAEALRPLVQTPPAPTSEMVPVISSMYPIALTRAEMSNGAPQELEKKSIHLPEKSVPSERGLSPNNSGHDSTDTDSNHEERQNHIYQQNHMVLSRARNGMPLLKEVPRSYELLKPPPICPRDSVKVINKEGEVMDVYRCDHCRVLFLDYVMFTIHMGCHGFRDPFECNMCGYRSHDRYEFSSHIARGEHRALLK
T4 sequence (Q96SW2 whole entry): as the sequence (Q96SW2 whole entry) above
T4 sequence (Q16531 whole entry partner): as the sequence (Q16531 whole entry partner) above

SMILES | GSPT1 substrate protein remaining % [1, 7] | Weel substrate protein remaining % [2, 7] | IKZF2 substrate protein remaining % [3, 7] | IKZF3 substrate protein remaining % [4, 7] | CK1a substrate protein remaining % [5, 7] | IKZF 1 substrate protein remaining % [6, 7] | GSPT1 substrate protein remaining % [1, 8] | Weel substrate protein remaining % [2, 8] | IKZF2 substrate protein remaining % [3, 8] | IKZF3 substrate protein remaining % [4, 8] | CK1a substrate protein remaining % [5, 8] | IKZF 1 substrate protein remaining % [6, 8]
O=C1CCC(N2Cc3cc(CN4CCN(Cc5ccc(C67CC8CC(CC(C8)C6)C7)cc5)CC4)ccc3C2=O)C(=O)N1 (stereo not drawn) [GT-03026, 3-(5-((4-(4-((3r,5r,7r)-adamantan-1-yl)benzyl)piperazin-1-yl)methyl)-1-oxoisoindolin-2-yl)piperidine-2,6-dione] | A (0% ≤ substrate protein remaining % ≤ 80%) | B (80%< substrate protein remaining %≤ 100%) | A (0% ≤ substrate protein remaining % ≤ 80%) | A (0% ≤ substrate protein remaining % ≤ 80%) | A (0% ≤ substrate protein remaining % ≤ 80%) | A (0% ≤ substrate protein remaining % ≤ 80%) | – | – | – | – | – | –
O=C1CCC(N2Cc3cc(CN4CCn5c(nnc5C(F)(F)F)C4)ccc3C2=O)C(=O)N1 (stereo not drawn) [GT-04199, 3-(1-oxo-5-((3-(trifluoromethyl)-5,6-dihydro-[1,2,4]triazolo[4,3-a]pyrazin-7(8H)-yl)methyl)isoindolin-2-yl)piperidine-2,6-dione] | B (80%< substrate protein remaining %≤ 100%) | A (0% ≤ substrate protein remaining % ≤ 80%) | A (0% ≤ substrate protein remaining % ≤ 80%) | A (0% ≤ substrate protein remaining % ≤ 80%) | B (80%< substrate protein remaining %≤ 100%) | B (80%< substrate protein remaining %≤ 100%) | – | – | – | – | – | –
O=C1CCC(N2Cc3c(CN4CCC(c5noc6cc(F)ccc56)CC4)cccc3C2=O)C(=O)N1 (stereo not drawn) [GT-04764, 3-(4-((4-(6-fluorobenzo[d]isoxazol-3-yl)piperidin-1-yl)methyl)-1-oxoisoindolin-2-yl)piperidine-2,6-dione] | A (0% ≤ substrate protein remaining % ≤ 80%) | A (0% ≤ substrate protein remaining % ≤ 80%) | B (80%< substrate protein remaining %≤ 100%) | B (80%< substrate protein remaining %≤ 100%) | A (0% ≤ substrate protein remaining % ≤ 80%) | B (80%< substrate protein remaining %≤ 100%) | – | – | – | – | – | –
O=C1CCC(N2C(=O)c3cccc(CN4CCC(c5noc6cc(F)ccc56)CC4)c3C2=O)C(=O)N1 (stereo not drawn) [GT-04770, 2-(2,6-dioxopiperidin-3-yl)-4-((4-(6-fluorobenzo[d]isoxazol-3-yl)piperidin-1-yl)methyl)isoindoline-1,3-dione] | A (0% ≤ substrate protein remaining % ≤ 80%) | B (80%< substrate protein remaining %≤ 100%) | B (80%< substrate protein remaining %≤ 100%) | B (80%< substrate protein remaining %≤ 100%) | B (80%< substrate protein remaining %≤ 100%) | B (80%< substrate protein remaining %≤ 100%) | – | – | – | – | – | –
O=C1CCC(N2C(=O)c3ccc(CN4CCC(c5noc6cc(F)ccc56)CC4)cc3C2=O)C(=O)N1 (stereo not drawn) [GT-04771, 2-(2,6-dioxopiperidin-3-yl)-5-((4-(6-fluorobenzo[d]isoxazol-3-yl)piperidin-1-yl)methyl)isoindoline-1,3-dione] | A (0% ≤ substrate protein remaining % ≤ 80%) | A (0% ≤ substrate protein remaining % ≤ 80%) | B (80%< substrate protein remaining %≤ 100%) | B (80%< substrate protein remaining %≤ 100%) | A (0% ≤ substrate protein remaining % ≤ 80%) | B (80%< substrate protein remaining %≤ 100%) | – | – | – | – | – | –
O=C1CCC(N2Cc3c(CN4CCN(c5cccc6sccc56)CC4)cccc3C2=O)C(=O)N1 (stereo not drawn) [GT-04914, 3-(4-((4-(benzo[b]thiophen-4-yl)piperazin-1-yl)methyl)-1-oxoisoindolin-2-yl)piperidine-2,6-dione] | A (0% ≤ substrate protein remaining % ≤ 80%) | A (0% ≤ substrate protein remaining % ≤ 80%) | B (80%< substrate protein remaining %≤ 100%) | B (80%< substrate protein remaining %≤ 100%) | A (0% ≤ substrate protein remaining % ≤ 80%) | A (0% ≤ substrate protein remaining % ≤ 80%) | – | – | – | – | – | –
O=C1CCC(N2Cc3c(CN4CCn5c(nnc5C(F)(F)F)C4)cccc3C2=O)C(=O)N1 (stereo not drawn) [GT-04920, 3-(1-oxo-4-((3-(trifluoromethyl)-5,6-dihydro-[1,2,4]triazolo[4,3-a]pyrazin-7(8H)-yl)methyl)isoindolin-2-yl)piperidine-2,6-dione] | A (0% ≤ substrate protein remaining % ≤ 80%) | A (0% ≤ substrate protein remaining % ≤ 80%) | A (0% ≤ substrate protein remaining % ≤ 80%) | A (0% ≤ substrate protein remaining % ≤ 80%) | B (80%< substrate protein remaining %≤ 100%) | A (0% ≤ substrate protein remaining % ≤ 80%) | – | – | – | – | – | –
O=C1CCC(N2C(=O)c3ccc(CN4CCn5c(nnc5C(F)(F)F)C4)cc3C2=O)C(=O)N1 (stereo not drawn) [GT-04921, 2-(2,6-dioxopiperidin-3-yl)-5-((3-(trifluoromethyl)-5,6-dihydro-[1,2,4]triazolo[4,3-a]pyrazin-7(8H)-yl)methyl)isoindoline-1,3-dione] | B (80%< substrate protein remaining %≤ 100%) | A (0% ≤ substrate protein remaining % ≤ 80%) | B (80%< substrate protein remaining %≤ 100%) | B (80%< substrate protein remaining %≤ 100%) | B (80%< substrate protein remaining %≤ 100%) | A (0% ≤ substrate protein remaining % ≤ 80%) | – | – | – | – | – | –
Cc1ccsc1N1CCN(Cc2ccc3c(c2)C(=O)N(C2CCC(=O)NC2=O)C3=O)CC1 (stereo not drawn) [GT-06214, 2-(2,6-dioxopiperidin-3-yl)-5-((4-(3-methylthiophen-2-yl)piperazin-1-yl)methyl)isoindoline-1,3-dione] | – | – | – | – | – | – | A (0% ≤ substrate protein remaining % ≤ 80%) | B (80%< substrate protein remaining %≤ 100%) | A (0% ≤ substrate protein remaining % ≤ 80%) | B (80%< substrate protein remaining %≤ 100%) | B (80%< substrate protein remaining %≤ 100%) | B (80%< substrate protein remaining %≤ 100%)
Cc1cc(N2CCN(Cc3ccc4c(c3)C(=O)N(C3CCC(=O)NC3=O)C4=O)CC2)cs1 (stereo not drawn) [GT-06218, 2-(2,6-dioxopiperidin-3-yl)-5-((4-(5-methylthiophen-3-yl)piperazin-1-yl)methyl)isoindoline-1,3-dione] | – | – | – | – | – | – | A (0% ≤ substrate protein remaining % ≤ 80%) | A (0% ≤ substrate protein remaining % ≤ 80%) | B (80%< substrate protein remaining %≤ 100%) | A (0% ≤ substrate protein remaining % ≤ 80%) | A (0% ≤ substrate protein remaining % ≤ 80%) | B (80%< substrate protein remaining %≤ 100%)
O=C1CCC(N2C(=O)c3ccc(CN4CC=C(c5cccs5)CC4)cc3C2=O)C(=O)N1 (stereo not drawn) [GT-06219, 2-(2,6-dioxopiperidin-3-yl)-5-((4-(thiophen-2-yl)-3,6-dihydropyridin-1(2H)-yl)methyl)isoindoline-1,3-dione] | – | – | – | – | – | – | A (0% ≤ substrate protein remaining % ≤ 80%) | A (0% ≤ substrate protein remaining % ≤ 80%) | B (80%< substrate protein remaining %≤ 100%) | A (0% ≤ substrate protein remaining % ≤ 80%) | A (0% ≤ substrate protein remaining % ≤ 80%) | B (80%< substrate protein remaining %≤ 100%)
Cc1cscc1C1=CCN(Cc2ccc3c(c2)C(=O)N(C2CCC(=O)NC2=O)C3=O)CC1 (stereo not drawn) [GT-06221, 2-(2,6-dioxopiperidin-3-yl)-5-((4-(4-methylthiophen-3-yl)-3,6-dihydropyridin-1(2H)-yl)methyl)isoindoline-1,3-dione] | – | – | – | – | – | – | A (0% ≤ substrate protein remaining % ≤ 80%) | A (0% ≤ substrate protein remaining % ≤ 80%) | A (0% ≤ substrate protein remaining % ≤ 80%) | A (0% ≤ substrate protein remaining % ≤ 80%) | A (0% ≤ substrate protein remaining % ≤ 80%) | A (0% ≤ substrate protein remaining % ≤ 80%)
